These results are taken from patent publication US4181717A, “Ovulation enhancing peptides” (Research Corporation, priority 1978, dated 1980).

The experiment deals with hamsters. The experiment can be described thus: Ovulation enhancement study in hamsters (ova count after 4 days of subcutaneous dosing). The format is in vivo. The conditions noted are these: ova counted on fifth day, untreated control mean 11.3. The procedure:
In one study carried out with hamsters utilizing H--Thr--Arg--Lys--Arg--OH diacetate, each of six animals was injected subcutaneously at various dosage levels as indicated in the Table for each of the four days of the estrous cycle. On the fifth day, the animals were sacrificed, the left and right ovaries and oviducts of each animal collected, sectioned, stained, and the ova counted. The figures given in the second column are the mean numbers of ova for six animals at each dosage level. In a control group of 20 animals which were not treated with the ovulation enhancing compound, the mean number of ova counted under similar conditions was 11.3.

Residues, ends and D or L forms follow the SMILES beside them.

With `C[C@@H](O)[C@H](N)C(=O)N[C@@H](CCCNC(=N)N)C(=O)N[C@@H](CCCCN)C(=O)N[C@@H](CCCNC(=N)N)C(=O)O` [H--Thr--Arg--Lys--Arg--OH diacetate, H--Thr--Arg--Lys--Arg--OH] (H-TRKR-OH), the “Number of OVA (mean number of ova for six animals)” value came out at 13.7 (0.10 μgm/100 gm/day on each of the four days of the estrous cycle), 14.1 (0.30 μgm/100 gm/day on each of the four days of the estrous cycle), 15.5 (3.00 μgm/100 gm/day on each of the four days of the estrous cycle) and 15.6 (30.00 μgm/100 gm/day on each of the four days of the estrous cycle).
